Measurements taken from US20230049952A1, “METHODS AND COMPOUNDS FOR RESTORING MUTANT P53 FUNCTION” (PMV Pharmaceuticals, Inc., priority 2020, published 2023).

Test system: NF-κB signaling pathway in MT373 tumors
Assay: MT373 syngeneic sarcoma model: mouse NF-κB signaling pathway profiling panel
Type: in vivo
Conditions: for Ccl2 mRNA downregulation / Csf2 mRNA downregulation / Egfr mRNA downregulation / Fas1 mRNA downregulation / Ifnγ mRNA downregulation / Il1α mRNA downregulation / Il1β mRNA downregulation: 150 mg/kg BID×1

## CCn1c(C#CCNc2ccccc2)cc2cc(CNC3CCN(C)CC3)ccc21 [Compound 1, 1-Anilino-3-{1-ethyl-5-[(1-methyl-4-piperidylamino)methyl]-1H-indol-2-yl}-2-propyne]
150 mg/kg BIDx1, […]
  Ccl5 fold increase over or percent reduction vs vehicle control: 2.85 ± 0.20 fold or %
  Cd27 fold increase over or percent reduction vs vehicle control: 1.48 ± 0.16 fold or %
  Cd40 fold increase over or percent reduction vs vehicle control: 1.78 ± 0.80 fold or %
  Cflar fold increase over or percent reduction vs vehicle control: 6.22 ± 11.55 fold or %
  Chuk fold increase over or percent reduction vs vehicle control: 1.16 ± 0.33 fold or %
  Crebbp fold increase over or percent reduction vs vehicle control: 16.61 ± 5.43 fold or %
  Csf1 fold increase over or percent reduction vs vehicle control: 1.10 ± 0.10 fold or %
  Csf2 fold increase over or percent reduction vs vehicle control: 2.00 ± 1.31 fold or %
  Csf3 fold increase over or percent reduction vs vehicle control: 52.98 ± 22.53 fold or %
  Egfr fold increase over or percent reduction vs vehicle control: 41.90 ± 8.16 fold or %
  Egr1 fold increase over or percent reduction vs vehicle control: 54.35 ± 3.91 fold or %
  Eif2ak2 fold increase over or percent reduction vs vehicle control: 18.72 ± 7.21 fold or %
  Elk1 fold increase over or percent reduction vs vehicle control: 7.14 ± 8.40 fold or %
  F2r fold increase over or percent reduction vs vehicle control: 1.01 ± 0.12 fold or %
  Fadd fold increase over or percent reduction vs vehicle control: 5.68 ± 5.62 fold or %
  Fasl fold increase over or percent reduction vs vehicle control: 3.17 ± 0.74 fold or %
  Fos fold increase over or percent reduction vs vehicle control: 44.44 ± 21.93 fold or %
  Hmox1 fold increase over or percent reduction vs vehicle control: 40.88 ± 33.56 fold or %
  Icam1 fold increase over or percent reduction vs vehicle control: 1.41 ± 0.25 fold or %
  Ifng fold increase over or percent reduction vs vehicle control: 3.22 ± 0.99 fold or %
  Ikbkb fold increase over or percent reduction vs vehicle control: 6.97 ± 8.47 fold or %
  Ikbke fold increase over or percent reduction vs vehicle control: 0.36 ± 10.26 fold or %
  Ikbkg fold increase over or percent reduction vs vehicle control: 9.50 ± 15.53 fold or %
  Il1a fold increase over or percent reduction vs vehicle control: 1.02 ± 0.18 fold or %
  Il1b fold increase over or percent reduction vs vehicle control: 1.39 ± 0.34 fold or %
  Il1r1 fold increase over or percent reduction vs vehicle control: 28.14 ± 8.59 fold or %
  Il10 fold increase over or percent reduction vs vehicle control: 34.39 ± 10.47 fold or %
  Irak1 fold increase over or percent reduction vs vehicle control: 5.30 ± 10.81 fold or %
  Irak2 fold increase over or percent reduction vs vehicle control: 1.05 ± 0.12 fold or %
  Irf1 fold increase over or percent reduction vs vehicle control: 1.11 ± 0.14 fold or %
  Jun fold increase over or percent reduction vs vehicle control: 26.73 ± 6.02 fold or %
  Lta fold increase over or percent reduction vs vehicle control: 1.87 ± 0.82 fold or %
  Ltbr fold increase over or percent reduction vs vehicle control: 1.13 ± 0.10 fold or %
  Map3k1 fold increase over or percent reduction vs vehicle control: 16.75 ± 8.45 fold or %
  Mapk3 fold increase over or percent reduction vs vehicle control: 19.93 ± 6.52 fold or %
  Myd88 fold increase over or percent reduction vs vehicle control: 9.52 ± 8.80 fold or %
  Nfkb1 fold increase over or percent reduction vs vehicle control: 5.72 ± 2.88 fold or %
  Nfkb2 fold increase over or percent reduction vs vehicle control: 1.01 ± 0.10 fold or %
  Nfkbia fold increase over or percent reduction vs vehicle control: 8.21 ± 16.85 fold or %
  Nod1 fold increase over or percent reduction vs vehicle control: 0.36 ± 14.65 fold or %
  Raf1 fold increase over or percent reduction vs vehicle control: 7.66 ± 4.64 fold or %
  Rel fold increase over or percent reduction vs vehicle control: 4.74 ± 2.26 fold or %
  Rela fold increase over or percent reduction vs vehicle control: 20.75 ± 9.37 fold or %
  Relb fold increase over or percent reduction vs vehicle control: 14.05 ± 6.91 fold or %
  Ripk1 fold increase over or percent reduction vs vehicle control: 2.92 ± 15.10 fold or %
  Ripk2 fold increase over or percent reduction vs vehicle control: 1.11 ± 0.29 fold or %
  Slc20a1 fold increase over or percent reduction vs vehicle control: 20.53 ± 3.61 fold or %
  Smad3 fold increase over or percent reduction vs vehicle control: 0.01 ± 11.30 fold or %
  Stat1 fold increase over or percent reduction vs vehicle control: 1.20 ± 0.33 fold or %
  Tbk1 fold increase over or percent reduction vs vehicle control: 1.03 ± 0.18 fold or %
  Tlr1 fold increase over or percent reduction vs vehicle control: 1.33 ± 0.37 fold or %
  Tlr2 fold increase over or percent reduction vs vehicle control: 1.05 ± 0.08 fold or %
  Tlr3 fold increase over or percent reduction vs vehicle control: 1.02 ± 0.15 fold or %
  Tlr4 fold increase over or percent reduction vs vehicle control: 1.04 ± 0.09 fold or %
  Tlr6 fold increase over or percent reduction vs vehicle control: 0.43 ± 6.189 fold or %
  Tlr9 fold increase over or percent reduction vs vehicle control: 1.29 ± 0.19 fold or %
  Tnf fold increase over or percent reduction vs vehicle control: 1.12 ± 0.27 fold or %
  Tnfaip3 fold increase over or percent reduction vs vehicle control: 11.08 ± 10.07 fold or %
  Tnfrsf1a fold increase over or percent reduction vs vehicle control: 17.69 ± 12.43 fold or %
  Tnfrsf1b fold increase over or percent reduction vs vehicle control: 1.08 ± 0.19 fold or %
  Tnfrsf10b fold increase over or percent reduction vs vehicle control: 1.19 ± 15.33 fold or %
  Tnfsf10 fold increase over or percent reduction vs vehicle control: 1.18 ± 0.41 fold or %
  Tnfsf14 fold increase over or percent reduction vs vehicle control: 1.09 ± 0.34 fold or %
  Tollip fold increase over or percent reduction vs vehicle control: 13.73 ± 7.04 fold or %
  Tradd fold increase over or percent reduction vs vehicle control: 1.02 ± 0.22 fold or %
  Traf2 fold increase over or percent reduction vs vehicle control: 1.01 ± 0.11 fold or %
  Traf3 fold increase over or percent reduction vs vehicle control: 17.66 ± 4.06 fold or %
  Traf5 fold increase over or percent reduction vs vehicle control: 1.10 ± 0.12 fold or %
  Traf6 fold increase over or percent reduction vs vehicle control: 12.35 ± 5.34 fold or %
  Zap70 fold increase over or percent reduction vs vehicle control: 2.40 ± 0.39 fold or %
24 h
  Ccl2 mRNA downregulation: 57.69%
  Csf2 mRNA downregulation: 61.29%
  Egfr mRNA downregulation: 28.45%
  Fas1 mRNA downregulation: 31.85%
  Ifnγ mRNA downregulation: 35.82%
  Il1α mRNA downregulation: 13.50%
  Il1β mRNA downregulation: 63.25%
48 h
  Ccl2 mRNA downregulation: 67.28%
  Csf2 mRNA downregulation: 62.24%
  Egfr mRNA downregulation: 24.42%
  Ifnγ mRNA downregulation: 43.46%
  Il1α mRNA downregulation: 28.88%
  Il1β mRNA downregulation: 18.73%
72 h
  Ccl2 mRNA downregulation: 52.53%
  Fas1 mRNA downregulation: 42.85%
  Ifnγ mRNA downregulation: 22.04%
  Il1α mRNA downregulation: 63.60%
  Il1β mRNA downregulation: 84.09%
[…]
  Egfr mRNA downregulation: 41.90%
